Legend:
[1] = system: purified human disc PLA2 induced paw edema; assay: human disc PLA2-induced mouse paw edema; assay type: in vivo
Protocol: Edema was induced by injection of 1 ug of purified human disc PLA2 into the mouse footpad. PX-13 was administered either by gavage or intraperitoneally (IP) 60 min prior to enzyme challenge. Forty-five min after enzyme injection, the animals were sacrificed and the control and injected paws were removed and weighed to assess edema.

[2] = system: ischemic bowel; assay: PLA2 release from ischemic bowel into media; conditions: 24 hrs of ischemia
Text: The addition of PX-13 reduced the enzyme release by more than 80% during 24 hrs of ischemia.

[3] = system: epidermal layer; assay: transepidermal water loss; assay type: in vivo, human
Protocol: Two PX compounds PX-11 and PX-13 were evaluated in a cream formulation prepared under GMP. The chemicals were formulated into a bland cream and evaluated in the following human or mouse skin tests: (1) occluded patch test for irritation; (2) cell turnover rate; (3) transepidermal water loss; (4) skin moisturization; and (5) reduction in erythema after induced sunburn. The human skin tests were conducted on three volunteer female subjects, ages 29-32; a cream base with no added active was included as a control, while the untreated skin served as an additional basis for evaluation. Sunburn tests were performed on a total of 30 hairless albino mice. 3. Transepidermal water loss. This parameter was measured by affixing a flow cell on the forearm site, applying the cream, waiting 20 minutes, then flushing the volume with nitrogen and noting the moisture content of the effluent gases.

[4] = system: human NP-homogenate induced paw edema; assay: nucleus pulposus (NP)-induced mouse paw edema; assay type: in vivo
Protocol: Human NP-homogenate was prepared according to the following protocol and stored frozen until use. Human vertebral discs were thawed and the tissue pieces were washed twice with isotonic saline. Tissue samples were homogenized in a minimum volume of isotonic saline using a Brinkman homogenizer. This homogenate was filtered through two layers of cheesecloth and the resultant filtrate was subjected to Dounce homogenization. This homogenate was again filtered through two layers of cheesecloth and the filtrate was capable of passing through a 26-gauge needle; 50 ul of the filtrate was administered to each mouse paw.
The filtrate contained 1.57 mg/ml of protein and its PLA2 activity was 12.8% hydrolysis of 10 nmols of E.coli phospholipid/10 ul filtrate/30 min. incubation at 37° C. Therefore, each mouse paw received 78.5 ug NP filtrate. This sample of 78,500 ng total protein contained approximately 4.3 ng NP PLA2 protein. By comparison, we use 500-2000 ng of highly purified PLA2 to induce edema in this mouse model; and under these experimental conditions the maximal edema achieved is 160% of the contralateral paw minus 4-7% edema due to saline injection alone.
The data are expressed as percent of contralateral paw and as percent of maximal edema achieved with purified PLA2. Fifty ul (78.5 ug) was injected into the paw 30 min. after the mice were treated with PX-13 in HEPES administered IP or by gavage at 30 or 60 mg/kg. After 3 hrs,the paws were excised and weighed.

[5] = system: human blood cells; assay: preservation of whole blood (LDH and hemoglobin release); assay type: cell-based
Protocol: The effect of PX-13 and mepacrine on whole blood cell viability were tested as a function of time of storage.
Heparinized human blood was centrifuged at 400×g and the resulting plasma was removed and replaced with an equal volume of Dulbecco's medium. The resuspended cells were then incubated at 37° C. for 0-72 hrs. in a shaking water bath. At the indicated times, a 0.8 ml aliquot was removed and centrifuged at 400×g to sediment cells. Appearance of lactate dehydrogenase (LDH) and hemoglobin in the supernate was indicative of cell injury. PX-13 and mepacrine stabilized cells and decreased the injury as evidenced by diminished levels of LDH and hemoglobin in the supernate. This is expressed as percent protection.

[6] = system: reflex sympathetic dystrophy (RSD); assay: topical cream in patients with reflex sympathetic dystrophy; assay type: in vivo, human
Protocol: A patient presents with severe RSD characterized by persistent pain and limitation of movement at the wrist joint. […] Another patient presents with a two year history of RSD in the knee joint. This patient previously received arthroscopic evaluations. This patient also had limited range of motion and became addicted to narcotics in an attempt to reduce pain. […] The reduction in pain is immediate and the increased range of motion occurs within 10-20 minutes. This patient, who had been unemployed for an extended period, eliminated intake of narcotics and returned to work. A third patient presented with RSD of the foot and ankle. This patient had no eversion or inversion of the foot.

[7] = small bowel storage in perfusate solution, tissue weight; set-up: species or system rat; conditions: 24 and 48 hours in the perfusate solution
Protocol: These drugs were also tested for their ability to enhance the preservation of tissues stored for subsequent transplantation. […] The graft was then transplanted into rats with or without intravenous (IV) infusion of 20 mg/kg PX-13 or mepacrine at the time of transplantation.

[8] = peroxidation (malondialdehyde formation) of homogenized rat bowel
Protocol: These drugs were also tested for their ability to enhance the preservation of tissues stored for subsequent transplantation. The small bowel was removed from rats, washed free of luminal contents and the tissue stored in University of Wisconsin (UW) preservative media ±40 uM PX-13 or mepacrine for 48 hrs. The graft was then transplanted into rats with or without intravenous (IV) infusion of 20 mg/kg PX-13 or mepacrine at the time of transplantation. Upon transplantation, the bowel is immediately injured as evidenced by tissue darkening within two minutes. […] Both PX-13 and mepacrine inhibit the peroxidation (malondialdehyde formation) of homogenized rat bowel, an indication that the membrane-stabilizing, PLA2-inhibitors, also have anti-oxidant activity.

[9] = patient 2, knee, cream combined with sympathetic blockade

CCCCCCCC/C=C\CCCCCCCC(=O)OCC(COC(=O)CCCCCCC/C=C\CCCCCCCC)(COC(=O)CCCCCCC/C=C\CCCCCCCC)NCCS(=O)(=O)O [PX-13, 2-[Tris(oleoyloxymethyl)methylamino]-1-ethanesulfonic acid]
Percent Protection ([1]; 20 mg/kg gavage, 60 min prior to enzyme, paws weighed 45 min after): 33%
Percent Protection ([1]; 40 mg/kg IP): 48%
Percent Protection ([1]; 40 mg/kg gavage): 55%
Percent Protection ([1]; 60 mg/kg gavage): 63%
reduction of PLA2 enzyme release [2]: more than 80%
% Change in Transepidermal Water Loss ([3]; forearm, 20 minutes after applying cream): −8.5%
effect on water loss from the epidermal layer ([3]; in vivo): functioned as an occluding moisturizer
Percent Edema ([4]; Gavage 30 mg/kg): 122 ± 5.6%
Percent Edema ([4]; Gavage 60 mg/kg): 118 ± 2.0%
Percent of Maximal ([4]; Gavage 60 mg/kg): 22%
Percent Inhibition ([4]; Gavage 60 mg/kg, 60 mg/kg): 36%
Percent Inhibition ([4]; IP 30 mg/kg): 24%
Percent of Maximal ([4]; IP 30 mg/kg, maximal edema with purified PLA2 = 54%): 26%
Percent Edema ([4]; IP 30 mg/kg, percent of contralateral paw, 3 hrs): 120 ± 2.0%
Percent Edema ([4]; IP 60 mg/kg): 115 ± 1.6%
Percent of Maximal ([4]; IP 60 mg/kg): 17%
Percent Inhibition ([4]; IP 60 mg/kg, 60 mg/kg): 50%
Percent Protection Hemoglobin ([5]; 20 uM, 48 hr): 55%
Percent Protection LDH ([5]; 20 uM, 48 hr, 37° C.): 22%
Percent Protection Hemoglobin ([5]; 20 uM, 72 hr): 25%
Percent Protection LDH ([5]; 20 uM, 72 hr): 15%
Percent Protection Hemoglobin ([5]; 80 uM, 48 hr): 72%
Percent Protection LDH ([5]; 80 uM, 48 hr): 39%
Percent Protection Hemoglobin ([5]; 80 uM, 72 hr): 54%
Percent Protection LDH ([5]; 80 uM, 72 hr): 41%
Percent Protection Hemoglobin ([5]; 160 uM, 48 hr): 77%
Percent Protection LDH ([5]; 160 uM, 48 hr): 78%
Percent Protection Hemoglobin ([5]; 160 uM, 72 hr): 80%
Percent Protection LDH ([5]; 160 uM, 72 hr): 72%
pain relief ([6]; patient 1, wrist, about 4% in cream of Example 15, topical): immediate pain relief
pain and range of motion [6, 9]: decreases the patient's report of pain and provides a full range of motion
time to increased range of motion [6, 9]: 10 to 20 min
time to full eversion and inversion ([6]; patient 3, foot and ankle, about 4% cream): ≤ 20 min
pain relief ([6]; patient 3, foot and ankle, about 4% in cream vehicle): immediate and complete pain relief
weight of the tissues after storage [7]: reduced weight
peroxidation (malondialdehyde formation) [8]: inhibit
